Assay results published in publication PMC11571207, “Stereorandomized Oncocins with Preserved Ribosome Binding and Antibacterial Activity” (Journal of Medicinal Chemistry, 2024).
Read-outs that look alike come from different tables or passages of the source. No end group written: not given here.

How the values were obtained:
[1] = test system: P. aeruginosa PA14 4.18 (pmrB); conditions: for MIC P. aeruginosa PA14 4.18: supplement CSV
human red blood cells = test: Hemolysis assay, minimum hemolytic concentration
K. pneumoniae NCTC 418 = test: microbe, parasite or virus in culture; conditions: for MIC K. pneumoniae NCTC418: supplement CSV
Outline: (§1)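 Read-out was visible growth after MTT addition, the MIC being the lowest inhibitory peptide concentration. Bacteria grown to log phase in LB were exposed in MH medium to peptide from 64 μg/mL in twofold dilutions for 15-18h at 37°C.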

P. aeruginosa PAO1 = test: microbe, parasite or virus in culture; conditions: for MIC P. aeruginosa PAO1: supplement CSV
Outline: as §1

A. baumannii ATCC19606 = test: microbe, parasite or virus in culture; conditions: for MIC A. baumannii ATCC19606: supplement CSV
Outline: as §1

E. coli W3110 = test: microbe, parasite or virus in culture; conditions: for MIC E. coli W3110: supplement CSV
Outline: as §1

S. aureus COL (MRSA) = test: microbe, parasite or virus in culture; conditions: for MIC S. aureus COL (MRSA): supplement CSV
Outline: as §1

[2] = test system: P. aeruginosa PA14 2P4 (pmrB); test: microbe, parasite or virus in culture; conditions: for MIC P. aeruginosa PA14 2P4: supplement CSV
Outline: (§2)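 Minimal inhibitory concentrations come from broth microdilution in MH medium, with a top peptide concentration of 64 μg/mL halved serially.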

P. aeruginosa PA14 = test: microbe, parasite or virus in culture; conditions: for MIC P. aeruginosa PA14: supplement CSV
Outline: as §2

K. pneumoniae OXA-48 = test: microbe, parasite or virus in culture; conditions: for MIC K. pneumoniae OXA-48: supplement CSV
Outline: as §2

P. aeruginosa ZEM9A = test: microbe, parasite or virus in culture; conditions: for MIC P. aeruginosa ZEM9A: supplement CSV
Outline: as §2

E. cloacae = test: microbe, parasite or virus in culture; conditions: for MIC E. cloacae: supplement CSV
Outline: as §2

P. aeruginosa ZEM-1A = test: microbe, parasite or virus in culture
Outline: as §2

[3] = test system: P. aeruginosa PA14 4.13 (phoQ); conditions: for MIC P. aeruginosa PA14 4.13: supplement CSV
[4] = polymyxin B resistant strain, 12.5% MHB pH 7.4, 16–20 h at 37 °C
[5] = polymyxin B resistant strain, full MHB pH 7.4, 16–20 h at 37 °C

## VDKPPYLPRPRPPRRIYNR [sr9Cterm-Onc] (VDKPPYLPRPRPPRRIYNR-NH2; also: residues 11-19 stereorandomized (1:1 L/D mixture))
[1]; [4]
  MIC P. aeruginosa PA14 4.18 (pmrB), 12.5% MHB: 8 µg/mL
[1]; [5]
  MIC P. aeruginosa PA14 4.18 (pmrB), full MHB: 64 µg/mL
[1]; 12.5% MH pH 7.4
  MIC P. aeruginosa PA14 4.18: 8 µg/mL
[1]; full MH pH 7.4
  MIC P. aeruginosa PA14 4.18: 64 µg/mL
Human red blood cells; 2.5% human red blood cells (final) in 10 mM phosphate, 150 mM NaCl, pH 7.4, 25 °C, 4 h, visual inspection
  Haemolysis on hRBC, MHC: >1000 µg/mL
Human red blood cells; supplement CSV
  MHC human red blood cells: >1000 µg/mL
K. pneumoniae NCTC 418; K. pneumoniae NCTC 418, 12.5% Müller–Hinton medium, 16–20 h at 37 °C
  MIC K. pneumoniae, 12.5% MHB: 4 / 4 μg/mL
K. pneumoniae NCTC 418; K. pneumoniae NCTC 418, full Müller–Hinton medium, 16–20 h at 37 °C
  MIC K. pneumoniae, Full MHB: 4 / 4 μg/mL
K. pneumoniae NCTC 418; 12.5% MH pH 7.4
  MIC K. pneumoniae NCTC418: 4 µg/mL
K. pneumoniae NCTC 418; full MH pH 7.4
  MIC K. pneumoniae NCTC418: 4 µg/mL
P. aeruginosa PAO1; P. aeruginosa PAO1, 12.5% Müller–Hinton medium, 16–20 h at 37 °C
  MIC P. aeruginosa, 12.5% MHB: 8 µg/mL
P. aeruginosa PAO1; P. aeruginosa PAO1, full Müller–Hinton medium, 16–20 h at 37 °C
  MIC P. aeruginosa, Full MHB: 64 µg/mL
P. aeruginosa PAO1; 12.5% MH pH 7.4
  MIC P. aeruginosa PAO1: 8 µg/mL
P. aeruginosa PAO1; full MH pH 7.4
  MIC P. aeruginosa PAO1: 64 µg/mL
A. baumannii ATCC19606; A. baumannii ATCC19606, 12.5% Müller–Hinton medium, 16–20 h at 37 °C
  MIC A. baumannii, 12.5% MHB: 4 µg/mL
A. baumannii ATCC19606; A. baumannii ATCC19606, full Müller–Hinton medium, 16–20 h at 37 °C
  MIC A. baumannii, Full MHB: 32 µg/mL
A. baumannii ATCC19606; 12.5% MH pH 7.4
  MIC A. baumannii ATCC19606: 4 µg/mL
A. baumannii ATCC19606; full MH pH 7.4
  MIC A. baumannii ATCC19606: 32 µg/mL
E. coli W3110; E. coli W3110, 12.5% Müller–Hinton medium, 16–20 h at 37 °C, broth microdilution
  MIC E. coli, 12.5% MHB: 4 µg/mL
E. coli W3110; E. coli W3110, full Müller–Hinton medium, 16–20 h at 37 °C, broth microdilution
  MIC E. coli, Full MHB: 8 µg/mL
E. coli W3110; 12.5% MH pH 7.4
  MIC E. coli W3110: 4 µg/mL
E. coli W3110; full MH pH 7.4
  MIC E. coli W3110: 8 µg/mL
S. aureus COL (MRSA); S. aureus COL (MRSA), 12.5% Müller–Hinton medium, 16–20 h at 37 °C
  MIC S. aureus, 12.5% MHB: 32 µg/mL
S. aureus COL (MRSA); S. aureus COL (MRSA), full Müller–Hinton medium, 16–20 h at 37 °C
  MIC S. aureus, Full MHB: > 64 µg/mL
S. aureus COL (MRSA); 12.5% MH pH 7.4
  MIC S. aureus COL (MRSA): 32 µg/mL
S. aureus COL (MRSA); full MH pH 7.4
  MIC S. aureus COL (MRSA): >64 µg/mL
[2]; [4]
  MIC P. aeruginosa PA14 2P4 (pmrB), 12.5% MHB: 4 µg/mL
[2]; [5]
  MIC P. aeruginosa PA14 2P4 (pmrB), full MHB: > 64 µg/mL
[2]; 12.5% MH pH 7.4
  MIC P. aeruginosa PA14 2P4: 4 µg/mL
[2]; full MH pH 7.4
  MIC P. aeruginosa PA14 2P4: >64 µg/mL
P. aeruginosa PA14; 12.5% MHB pH 7.4, 16–20 h at 37 °C, two different duplicate MIC determinations
  MIC P. aeruginosa PA14, 12.5% MHB: 8 µg/mL
P. aeruginosa PA14; full MHB pH 7.4, 16–20 h at 37 °C, two different duplicate MIC determinations
  MIC P. aeruginosa PA14, full MHB: > 64 µg/mL
P. aeruginosa PA14; 12.5% MH pH 7.4
  MIC P. aeruginosa PA14: 8 µg/mL
P. aeruginosa PA14; full MH pH 7.4
  MIC P. aeruginosa PA14: >64 µg/mL
K. pneumoniae OXA-48; carbapenem-resistant, 12.5% MHB pH 7.4, 16–20 h at 37 °C
  MIC K. pneumoniae OXA-48, 12.5% MHB: 4 µg/mL
K. pneumoniae OXA-48; carbapenem-resistant, full MHB pH 7.4, 16–20 h at 37 °C
  MIC K. pneumoniae OXA-48, full MHB: 32 µg/mL
K. pneumoniae OXA-48; 12.5% MH pH 7.4
  MIC K. pneumoniae OXA-48: 4 µg/mL
K. pneumoniae OXA-48; full MH pH 7.4
  MIC K. pneumoniae OXA-48: 32 µg/mL
P. aeruginosa ZEM9A; clinical isolate, 12.5% MHB pH 7.4, 16–20 h at 37 °C
  MIC P. aeruginosa ZEM9A, 12.5% MHB: 8 µg/mL
P. aeruginosa ZEM9A; clinical isolate, full MHB pH 7.4, 16–20 h at 37 °C
  MIC P. aeruginosa ZEM9A, full MHB: > 64 µg/mL
P. aeruginosa ZEM9A; 12.5% MH pH 7.4
  MIC P. aeruginosa ZEM9A: 8 µg/mL
P. aeruginosa ZEM9A; full MH pH 7.4
  MIC P. aeruginosa ZEM9A: >64 µg/mL
E. cloacae; 12.5% MHB pH 7.4, 16–20 h at 37 °C
  MIC E. cloacae, 12.5% MHB: 1 µg/mL
E. cloacae; full MHB pH 7.4, 16–20 h at 37 °C
  MIC E. cloacae, full MHB: 32 µg/mL
E. cloacae; 12.5% MH pH 7.4
  MIC E. cloacae: 1 µg/mL
E. cloacae; full MH pH 7.4
  MIC E. cloacae: 32 µg/mL
P. aeruginosa ZEM-1A; clinical isolate, 12.5% MHB pH 7.4, 16–20 h at 37 °C, cells marked c: single measurement (in duplicates)
  MIC P. aeruginosa ZEM-1A, 12.5% MHB: 4 to 8 µg/mL
P. aeruginosa ZEM-1A; clinical isolate, full MHB pH 7.4, 16–20 h at 37 °C, cells marked c: single measurement (in duplicates)
  MIC P. aeruginosa ZEM-1A, full MHB: 64 µg/mL
P. aeruginosa ZEM-1A; supplement CSV, 12.5% MH pH 7.4
  MIC P. aeruginosa ZEM-1A: 4 to 8 µg/mL
[3]; [4]
  MIC P. aeruginosa PA14 4.13 (phoQ), 12.5% MHB: 8 µg/mL
[3]; [5]
  MIC P. aeruginosa PA14 4.13 (phoQ), full MHB: 64 µg/mL
[3]; 12.5% MH pH 7.4
  MIC P. aeruginosa PA14 4.13: 8 µg/mL
[3]; full MH pH 7.4
  MIC P. aeruginosa PA14 4.13: 64 µg/mL
